Our source for the Activity, Ki and Km values is ChEMBL document CHEMBL2074069, “Drug- and estrogen-induced cholestasis through inhibition of the hepatocellular bile salt export pump (Bsep) of rat liver” (Gastroenterology, 2000).

In data set [1] the target is T1, Bile salt export pump (Rattus norvegicus, UniProt O70127).
T1 sequence (O70127 whole entry): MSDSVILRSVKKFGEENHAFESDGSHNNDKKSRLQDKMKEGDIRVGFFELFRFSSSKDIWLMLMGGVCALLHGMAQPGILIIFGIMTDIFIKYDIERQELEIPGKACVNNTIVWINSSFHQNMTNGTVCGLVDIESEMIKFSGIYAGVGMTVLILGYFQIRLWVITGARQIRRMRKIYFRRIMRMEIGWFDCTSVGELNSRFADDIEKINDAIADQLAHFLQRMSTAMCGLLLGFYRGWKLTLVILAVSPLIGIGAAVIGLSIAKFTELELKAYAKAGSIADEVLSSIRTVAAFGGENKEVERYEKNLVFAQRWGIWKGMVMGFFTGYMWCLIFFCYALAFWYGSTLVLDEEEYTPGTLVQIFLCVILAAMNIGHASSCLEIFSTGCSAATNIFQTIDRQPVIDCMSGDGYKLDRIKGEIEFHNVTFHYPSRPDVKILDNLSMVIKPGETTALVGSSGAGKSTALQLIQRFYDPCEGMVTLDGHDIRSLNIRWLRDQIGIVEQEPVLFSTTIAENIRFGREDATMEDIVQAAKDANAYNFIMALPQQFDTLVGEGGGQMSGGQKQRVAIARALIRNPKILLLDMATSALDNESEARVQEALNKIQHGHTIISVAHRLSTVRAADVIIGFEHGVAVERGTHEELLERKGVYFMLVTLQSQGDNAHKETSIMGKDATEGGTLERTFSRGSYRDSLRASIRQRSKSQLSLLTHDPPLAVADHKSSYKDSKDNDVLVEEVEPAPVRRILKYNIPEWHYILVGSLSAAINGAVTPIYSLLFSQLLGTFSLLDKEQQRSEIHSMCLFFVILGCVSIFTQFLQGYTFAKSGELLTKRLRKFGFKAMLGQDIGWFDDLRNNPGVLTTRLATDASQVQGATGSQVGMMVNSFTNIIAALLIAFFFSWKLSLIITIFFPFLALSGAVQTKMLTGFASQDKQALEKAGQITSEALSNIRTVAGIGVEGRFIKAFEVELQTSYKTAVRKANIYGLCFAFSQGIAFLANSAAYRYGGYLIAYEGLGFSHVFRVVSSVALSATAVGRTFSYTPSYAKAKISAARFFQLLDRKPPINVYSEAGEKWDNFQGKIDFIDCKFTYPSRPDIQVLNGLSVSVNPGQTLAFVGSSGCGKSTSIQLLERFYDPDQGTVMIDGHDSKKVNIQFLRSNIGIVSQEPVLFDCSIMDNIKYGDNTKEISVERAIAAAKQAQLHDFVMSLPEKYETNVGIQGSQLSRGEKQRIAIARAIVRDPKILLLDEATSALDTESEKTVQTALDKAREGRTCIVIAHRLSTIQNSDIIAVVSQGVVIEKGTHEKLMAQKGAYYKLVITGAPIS
Put plainly: (§1) TP_TRANSPORTER: uptake in membrane vesicles from Bsep-expressing Sf9 cells. The class given is functional.

The target of data set [2] is T1, Bile salt export pump. Put plainly: TP_TRANSPORTER: inhibition of Taurocholate uptake in membrane vesicles from Bsep-expressing Sf9 cells. Type of data set: functional.
For data set [3], the target named is ATP-binding cassette sub-family C member 2 (Rattus norvegicus, UniProt Q63120). Put plainly: TP_TRANSPORTER: uptake in membrane vesicles from Mrp2-expressing Sf9 cells. Type of data set: functional, cell membranes, Membrane vesicle.
ATP-binding cassette sub-family C member 2, sequence (Q63120 whole entry): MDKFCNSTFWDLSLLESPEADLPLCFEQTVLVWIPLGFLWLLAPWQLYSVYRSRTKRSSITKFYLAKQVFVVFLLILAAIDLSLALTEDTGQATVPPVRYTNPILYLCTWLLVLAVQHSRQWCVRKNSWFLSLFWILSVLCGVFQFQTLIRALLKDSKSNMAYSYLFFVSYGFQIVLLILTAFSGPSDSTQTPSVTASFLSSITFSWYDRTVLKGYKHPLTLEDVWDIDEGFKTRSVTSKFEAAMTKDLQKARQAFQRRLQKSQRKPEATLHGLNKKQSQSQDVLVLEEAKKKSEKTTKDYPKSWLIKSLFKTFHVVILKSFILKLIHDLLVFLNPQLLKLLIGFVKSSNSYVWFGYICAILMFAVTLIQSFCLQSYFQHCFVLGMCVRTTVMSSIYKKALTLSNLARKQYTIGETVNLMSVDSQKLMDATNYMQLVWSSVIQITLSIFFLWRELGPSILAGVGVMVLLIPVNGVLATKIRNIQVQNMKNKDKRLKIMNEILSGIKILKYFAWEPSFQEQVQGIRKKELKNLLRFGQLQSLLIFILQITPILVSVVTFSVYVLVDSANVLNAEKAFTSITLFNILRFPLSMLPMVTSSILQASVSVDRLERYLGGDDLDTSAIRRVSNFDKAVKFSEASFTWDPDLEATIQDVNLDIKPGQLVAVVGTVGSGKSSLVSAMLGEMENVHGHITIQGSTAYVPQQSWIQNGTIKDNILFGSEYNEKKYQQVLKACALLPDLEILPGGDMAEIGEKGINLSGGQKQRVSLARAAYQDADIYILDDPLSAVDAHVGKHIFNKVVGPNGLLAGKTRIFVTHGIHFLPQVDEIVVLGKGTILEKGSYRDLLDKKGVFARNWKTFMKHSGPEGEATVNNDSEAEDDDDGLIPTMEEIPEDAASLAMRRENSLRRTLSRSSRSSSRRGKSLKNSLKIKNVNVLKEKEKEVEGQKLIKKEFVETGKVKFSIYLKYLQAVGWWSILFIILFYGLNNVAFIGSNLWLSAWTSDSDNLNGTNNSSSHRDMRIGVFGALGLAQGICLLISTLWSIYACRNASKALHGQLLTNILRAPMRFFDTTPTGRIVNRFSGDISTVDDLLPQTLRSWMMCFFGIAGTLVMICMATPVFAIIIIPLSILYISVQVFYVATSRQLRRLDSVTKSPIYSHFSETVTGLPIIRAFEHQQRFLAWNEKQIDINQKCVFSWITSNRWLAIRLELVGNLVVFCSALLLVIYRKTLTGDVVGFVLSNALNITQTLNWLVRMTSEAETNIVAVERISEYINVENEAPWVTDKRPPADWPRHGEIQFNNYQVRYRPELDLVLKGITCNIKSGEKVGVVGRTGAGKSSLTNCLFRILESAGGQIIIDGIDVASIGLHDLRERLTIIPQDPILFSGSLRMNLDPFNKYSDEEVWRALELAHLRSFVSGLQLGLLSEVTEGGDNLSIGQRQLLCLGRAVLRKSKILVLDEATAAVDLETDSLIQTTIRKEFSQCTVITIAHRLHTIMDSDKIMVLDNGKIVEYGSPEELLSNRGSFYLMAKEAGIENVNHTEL
Substrate in data set [4]: C[C@H](CCC(=O)NCCS(=O)(=O)O)[C@H]1CC[C@H]2[C@@H]3[C@@H](O)C[C@@H]4C[C@H](O)CC[C@]4(C)[C@H]3CC[C@]12C
Described as §1. The class given is functional.

Substrate in data set [5]: C[C@H](CCC(=O)NCCS(=O)(=O)O)[C@H]1CC[C@H]2[C@@H]3[C@H](O)C[C@@H]4C[C@H](O)CC[C@]4(C)[C@H]3CC[C@]12C
The description is as §1. Type of data set: functional.

In the case of `C[C@H](CCC(=O)NCC(=O)O)[C@H]1CC[C@H]2[C@@H]3[C@H](O)C[C@@H]4C[C@H](O)CC[C@]4(C)[C@H]3C[C@H](O)[C@]12C` [GLYCOCHOLIC ACID], at Bile salt export pump [1], the Activity result was “substrate [+]”.

As to `C[C@H](CCC(=O)NCC(=O)O)[C@H]1CC[C@H]2[C@@H]3[C@H](O)C[C@@H]4C[C@H](O)CC[C@]4(C)[C@H]3CC[C@]12C` [GLYCOCHENODEOXYCHOLATE], at Bile salt export pump [1], the Activity entry was “substrate [+]”.

As for `C[C@H](CCC(=O)NCCS(=O)(=O)O)[C@H]1CC[C@H]2[C@@H]3CC[C@@H]4C[C@H](O)CC[C@]4(C)[C@H]3C[C@H](O)[C@]12C` [TAURODEOXYCHOLIC ACID], the Activity entry on Bile salt export pump [1] is “substrate [+]”.

Consider `CO[C@H]1/C=C/O[C@@]2(C)Oc3c(C)c(O)c4c(O)c(cc(O)c4c3C2=O)NC(=O)/C(C)=C\C=C\[C@H](C)[C@H](O)[C@@H](C)[C@@H](O)[C@@H](C)[C@H](OC(C)=O)[C@@H]1C` [RIFAMYCIN], for which the Ki (commonly a measure of affinity in units of concentration, obtained from inhibition or displacement) on Bile salt export pump [2] was 3.8 µM. In the case of `COc1ccc(Cl)cc1C(=O)NCCc1ccc(S(=O)(=O)NC(=O)NC2CCCCC2)cc1` [GLYBURIDE], the Ki on Bile salt export pump [2] was 6.1 µM. Regarding `CO[C@H]1/C=C/O[C@@]2(C)Oc3c(C)c(O)c4c(O)c(c(/C=N/N5CCN(C)CC5)c(O)c4c3C2=O)NC(=O)/C(C)=C\C=C\[C@H](C)[C@H](O)[C@@H](C)[C@@H](O)[C@@H](C)[C@H](OC(C)=O)[C@@H]1C` [RIFAMPIN], the Ki on Bile salt export pump [2] was 11.9 µM. Turning to `C[C@H](CCC(=O)NCCS(=O)(=O)O)C1CC[C@H]2[C@@H]3CC[C@@H]4C[C@H](OS(=O)(=O)O)CC[C@]4(C)[C@H]3CC[C@]12C` (some centres undefined), in data set [3], the Activity result is “substrate [+]”.

B1: Bile salt export pump (Rattus norvegicus) (protein)
chain: MSDSVILRSVKKFGEENHAFESDGSHNNDKKSRLQDKMKEGDIRVGFFELFRFSSSKDIWLMLMGGVCALLHGMAQPGILIIFGIMTDIFIKYDIERQELEIPGKACVNNTIVWINSSFHQNMTNGTVCGLVDIESEMIKFSGIYAGVGMTVLILGYFQIRLWVITGARQIRRMRKIYFRRIMRMEIGWFDCTSVGELNSRFADDIEKINDAIADQLAHFLQRMSTAMCGLLLGFYRGWKLTLVILAVSPLIGIGAAVIGLSIAKFTELELKAYAKAGSIADEVLSSIRTVAAFGGENKEVERYEKNLVFAQRWGIWKGMVMGFFTGYMWCLIFFCYALAFWYGSTLVLDEEEYTPGTLVQIFLCVILAAMNIGHASSCLEIFSTGCSAATNIFQTIDRQPVIDCMSGDGYKLDRIKGEIEFHNVTFHYPSRPDVKILDNLSMVIKPGETTALVGSSGAGKSTALQLIQRFYDPCEGMVTLDGHDIRSLNIRWLRDQIGIVEQEPVLFSTTIAENIRFGREDATMEDIVQAAKDANAYNFIMALPQQFDTLVGEGGGQMSGGQKQRVAIARALIRNPKILLLDMATSALDNESEARVQEALNKIQHGHTIISVAHRLSTVRAADVIIGFEHGVAVERGTHEELLERKGVYFMLVTLQSQGDNAHKETSIMGKDATEGGTLERTFSRGSYRDSLRASIRQRSKSQLSLLTHDPPLAVADHKSSYKDSKDNDVLVEEVEPAPVRRILKYNIPEWHYILVGSLSAAINGAVTPIYSLLFSQLLGTFSLLDKEQQRSEIHSMCLFFVILGCVSIFTQFLQGYTFAKSGELLTKRLRKFGFKAMLGQDIGWFDDLRNNPGVLTTRLATDASQVQGATGSQVGMMVNSFTNIIAALLIAFFFSWKLSLIITIFFPFLALSGAVQTKMLTGFASQDKQALEKAGQITSEALSNIRTVAGIGVEGRFIKAFEVELQTSYKTAVRKANIYGLCFAFSQGIAFLANSAAYRYGGYLIAYEGLGFSHVFRVVSSVALSATAVGRTFSYTPSYAKAKISAARFFQLLDRKPPINVYSEAGEKWDNFQGKIDFIDCKFTYPSRPDIQVLNGLSVSVNPGQTLAFVGSSGCGKSTSIQLLERFYDPDQGTVMIDGHDSKKVNIQFLRSNIGIVSQEPVLFDCSIMDNIKYGDNTKEISVERAIAAAKQAQLHDFVMSLPEKYETNVGIQGSQLSRGEKQRIAIARAIVRDPKILLLDEATSALDTESEKTVQTALDKAREGRTCIVIAHRLSTIQNSDIIAVVSQGVVIEKGTHEKLMAQKGAYYKLVITGAPIS
On to B1, for which the Km (commonly the concentration of substrate that gives half-maximal velocity) in data set [4] worked out at 4.1 µM; in data set [5], 2.2 µM.
